From ChEMBL document CHEMBL1201862, “PubChem BioAssay data set” (2004)
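Protocol summary: plate cells (96-well), add compound at 5 concentrations, incubate 48 h, interpolate endpoints linearly. Here, GI50 denotes the concentration required for 50% inhibition of growth.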 Calls of active or inactive are those of the source. No stated cut-off is given here; in the data, active = GI50 up to about 1.1 µM and inactive = higher.

Columns and labels:
Assay in all cases: NCI-60 cell line screen, 48 h
[1] = system: HOP-92
[2] = system: OVCAR-8
[3] = system: NCI-H460
[4] = system: K562
[5] = system: SNB-75
[6] = system: ACHN
[7] = system: NCI-H226
[8] = system: OVCAR-3
[9] = system: SF-539
[10] = system: SR
[11] = system: SW-620
[12] = system: MDA-MB-231
[13] = system: UACC-257
[14] = system: SN12C
[15] = system: CCRF-CEM
[16] = system: EKVX
[17] = system: DU-145
[18] = system: SK-MEL-2
[19] = system: HT-29
[20] = system: SK-MEL-28

SMILES | GI50 [1] | GI50 [2] | GI50 [3] | GI50 [4] | GI50 [5] | GI50 [6] | GI50 [7] | GI50 [8] | GI50 [9] | GI50 [10] | GI50 [11] | GI50 [12] | GI50 [13] | GI50 [14] | GI50 [15] | GI50 [16] | GI50 [17] | GI50 [18] | GI50 [19] | GI50 [20]
O=S(=O)(c1cccc(C(F)(F)F)c1)N1c2ccccc2-n2cccc2C1c1cccnc1 (centres undefined) | 26.9 µM (inactive) | 44.3 µM (inactive) | 22.9 µM (inactive) | 9.12 µM (inactive) | 61.9 µM (inactive) | > 46.5 µM (inactive) | > 28.1 µM (inactive) | > 35.8 µM (inactive) | 28 µM (inactive) | 6.71 µM (inactive) | 16.5 µM (inactive) | > 36.8 µM (inactive) | > 36.4 µM (inactive) | > 42.4 µM (inactive) | 8.75 µM (inactive) | > 100 µM (inactive) | > 39.7 µM (inactive) | 17.7 µM (inactive) | 18.1 µM (inactive) | 29.4 µM (inactive)
COc1ccc2c(c1)[C@@H](NC(C)=O)CCc1cc(OC)c(OC)c(OC)c1-2 | 0.0219 µM (active) | 0.0157 µM (active) | 0.0168 µM (active) | 0.0128 µM (active) | 0.0258 µM (active) | 0.0179 µM (active) | 0.0891 µM (active) | 0.0144 µM (active) | 0.013 µM (active) | 0.0834 µM (active) | 0.0172 µM (active) | 0.0228 µM (active) | 0.108 µM (active) | 0.02 µM (active) | 0.0398 µM (active) | 8.34 µM (inactive) | 0.0185 µM (active) | 0.0174 µM (active) | 0.0146 µM (active) | < 0.017 µM (active)
OC(CC(CC(O)(C(F)(F)Cl)C(F)(F)Cl)=NNc1ccccc1)(C(F)(F)Cl)C(F)(F)Cl | 2.01 µM (inactive) | 2.9 µM (inactive) | 3.04 µM (inactive) | > 10 µM (inactive) | 2.71 µM (inactive) | 2.79 µM (inactive) | 2.99 µM (inactive) | 2.77 µM (inactive) | 2.95 µM (inactive) | 5.79 µM (inactive) | 3.27 µM (inactive) | 2.78 µM (inactive) | 1.88 µM (inactive) | 3.36 µM (inactive) | > 10 µM (inactive) | 3.27 µM (inactive) | 3.3 µM (inactive) | 1.4 µM (inactive) | 3.06 µM (inactive) | 2.92 µM (inactive)
CS(=O)(=O)OCCCCOS(C)(=O)=O [BUSULFAN] | 198 µM (inactive) | 237 µM (inactive) | 95.9 µM (inactive) | 201 µM (inactive) | 144 µM (inactive) | 172 µM (inactive) | 237 µM (inactive) | > 250 µM (inactive) | 233 µM (inactive) | 87.9 µM (inactive) | 224 µM (inactive) | > 1000 µM (inactive) | 183 µM (inactive) | 233 µM (inactive) | 145 µM (inactive) | > 201 µM (inactive) | 220 µM (inactive) | 248 µM (inactive) | 247 µM (inactive) | 203 µM (inactive)
O=c1[nH]nc(N/N=C\c2ccc(Cl)cc2)c2ccccc12 | 16.9 µM (inactive) | 24.3 µM (inactive) | 20.3 µM (inactive) | 20.9 µM (inactive) | 22.6 µM (inactive) | 21.4 µM (inactive) | 27.6 µM (inactive) | 16 µM (inactive) | 21.4 µM (inactive) | 3.9 µM (inactive) | 17.5 µM (inactive) | 22.3 µM (inactive) | 21.4 µM (inactive) | 27.5 µM (inactive) | 44 µM (inactive) | 31.3 µM (inactive) | 21.9 µM (inactive) | 17.2 µM (inactive) | 29.5 µM (inactive) | 23.3 µM (inactive)
O=[N+]([O-])c1ccc(-n2nc3ccc4c(no[n+]4[O-])c3[n+]2[O-])c([N+](=O)[O-])c1 | 2.96 µM (inactive) | 2.4 µM (inactive) | 5.55 µM (inactive) | 2.14 µM (inactive) | 8.81 µM (inactive) | 2.45 µM (inactive) | 8.24 µM (inactive) | 2.47 µM (inactive) | 6.15 µM (inactive) | 1.91 µM (inactive) | 2.1 µM (inactive) | 2.27 µM (inactive) | 1.75 µM (inactive) | 2.56 µM (inactive) | 0.938 µM (active) | 12.2 µM (inactive) | 5.56 µM (inactive) | 3.56 µM (inactive) | 4.69 µM (inactive) | 2.51 µM (inactive)
C/C(=N\NC(N)=S)c1nc2cccnc2[nH]1 | 98.2 µM (inactive) | > 67 µM (inactive) | 45.7 µM (inactive) | 71 µM (inactive) | > 100 µM (inactive) | 43 µM (inactive) | > 56 µM (inactive) | 31.8 µM (inactive) | 58.9 µM (inactive) | 45.5 µM (inactive) | 56.8 µM (inactive) | > 70.1 µM (inactive) | > 88.5 µM (inactive) | > 100 µM (inactive) | 31.1 µM (inactive) | 50 µM (inactive) | 63.7 µM (inactive) | > 100 µM (inactive) | 41.3 µM (inactive) | > 88.9 µM (inactive)
COc1cc2c(cc1O)Cc1c-2[n+](C)cc2cc(OC)c(OC)cc12 | > 77.3 µM (inactive) | 2.72 µM (inactive) | 3.28 µM (inactive) | 1.93 µM (inactive) | 63.2 µM (inactive) | 1.5 µM (inactive) | > 59 µM (inactive) | 29.7 µM (inactive) | 1.82 µM (inactive) | 0.118 µM (active) | 33.4 µM (inactive) | > 100 µM (inactive) | > 68.9 µM (inactive) | 4.8 µM (inactive) | 0.407 µM (active) | > 90.8 µM (inactive) | 4.23 µM (inactive) | > 100 µM (inactive) | > 83 µM (inactive) | > 89.9 µM (inactive)
[O-][N+]1=[N+]([O-])[C@@H](c2ccccc2)[C@H]1c1ccccc1 | 15.6 µM (inactive) | 16.8 µM (inactive) | 22.4 µM (inactive) | 3.52 µM (inactive) | 21.3 µM (inactive) | 17.6 µM (inactive) | 21.3 µM (inactive) | 15.2 µM (inactive) | 18.4 µM (inactive) | 18.4 µM (inactive) | 14.5 µM (inactive) | 20.2 µM (inactive) | 13.1 µM (inactive) | 18 µM (inactive) | 3.3 µM (inactive) | 18.3 µM (inactive) | 16.3 µM (inactive) | 17.9 µM (inactive) | 18.3 µM (inactive) | 16.6 µM (inactive)
COc1cc2c(cc1Cc1c(F)cccc1Cl)nc(-c1c(F)cccc1Cl)n2Cc1c(F)cccc1Cl | 2.64 µM (inactive) | 36.3 µM (inactive) | 22.5 µM (inactive) | 45.3 µM (inactive) | 24.7 µM (inactive) | 31.8 µM (inactive) | 34 µM (inactive) | 11.6 µM (inactive) | 21 µM (inactive) | 26.7 µM (inactive) | – | 31.8 µM (inactive) | 22.5 µM (inactive) | 20.9 µM (inactive) | 2.1 µM (inactive) | 12.6 µM (inactive) | 28.1 µM (inactive) | 12.6 µM (inactive) | 16.5 µM (inactive) | 65.6 µM (inactive)
